Experimental data from ChEMBL document CHEMBL1201862, “PubChem BioAssay data set” (2004).
Active and inactive are the calls of the source. Cut-off read from the data, not from the text of the source: actives have a measured IC50 and inactives only a lower limit.

These molecules were tested against Envelope glycoprotein gp160 (Human immunodeficiency virus 1, UniProt Q6QLK5) (assay: inhibitors of HIV fusion peptide binding, primary screen, biochemical, uHTS, fluorescence dequenching (AID 1986)).
Envelope glycoprotein gp160, sequence (Q6QLK5 whole entry, the tested form may be a part): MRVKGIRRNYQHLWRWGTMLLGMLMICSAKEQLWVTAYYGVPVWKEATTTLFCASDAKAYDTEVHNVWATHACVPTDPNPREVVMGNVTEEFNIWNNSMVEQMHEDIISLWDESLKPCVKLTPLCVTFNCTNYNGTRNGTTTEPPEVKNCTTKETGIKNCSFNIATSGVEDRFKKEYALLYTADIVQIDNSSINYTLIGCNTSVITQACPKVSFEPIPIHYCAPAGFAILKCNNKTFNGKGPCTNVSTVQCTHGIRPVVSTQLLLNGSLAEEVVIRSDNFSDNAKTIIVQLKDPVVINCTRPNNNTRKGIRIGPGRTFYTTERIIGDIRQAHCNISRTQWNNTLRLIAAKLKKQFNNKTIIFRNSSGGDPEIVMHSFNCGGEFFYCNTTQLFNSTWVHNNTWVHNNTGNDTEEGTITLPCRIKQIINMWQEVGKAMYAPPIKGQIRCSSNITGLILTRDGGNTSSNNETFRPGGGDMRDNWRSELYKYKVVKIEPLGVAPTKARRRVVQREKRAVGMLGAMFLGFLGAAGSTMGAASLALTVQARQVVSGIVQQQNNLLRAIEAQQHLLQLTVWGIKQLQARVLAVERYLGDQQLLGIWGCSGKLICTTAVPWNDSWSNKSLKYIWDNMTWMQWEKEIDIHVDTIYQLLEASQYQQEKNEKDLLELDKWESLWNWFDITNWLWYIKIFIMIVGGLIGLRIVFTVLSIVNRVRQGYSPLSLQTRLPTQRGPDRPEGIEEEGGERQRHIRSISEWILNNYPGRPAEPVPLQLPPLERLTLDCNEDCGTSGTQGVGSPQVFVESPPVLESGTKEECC
In the case of `CCOc1ccc(NC(=NCc2ccc3c(c2)OCO3)SC2CC(=O)N(c3ccc(C(=O)O)cc3)C2=O)cc1` (stereo not drawn), the IC50 is reported as 25.9 µM (active). In the case of `CC(Oc1ccc(Cl)cc1Cl)C(=O)Nc1ccc(S(=O)(=O)Nc2cnc3ccccc3n2)cc1` (stereo not drawn), the IC50 is reported as 15.7 µM (active). For `COc1cc(/C=C2\SC(=S)NC2=O)ccc1OS(=O)(=O)c1ccccc1`, the IC50 was 18 µM (active).
